The source of these data is ChEMBL document CHEMBL1817616, “Synthesis, characterization and biological evaluation of some 16β-azolyl-3β-amino-5α-androstane derivatives as potential anticancer agents” (Eur J Med Chem, 2011).

One test concerns SW480. Kind of test: Anticancer activity against human SW480 cells after 48 hrs by MTT assay. It is filed as functional, cell-based. To be noted: SW480, 48 h.
The next test deals with HEK293. Briefly: Cytotoxicity against human HEK293 cells after 48 hrs by MTT assay. To be noted: HEK293, 48 h. It is filed as cell-based.
In the next test the test system is HepG2. Kind of test: Anticancer activity against human HepG2 cells after 48 hrs by MTT assay. The format is functional, cell-based. To be noted: HepG2, 48 h.
A further test concerns SiHa. Kind of test: Anticancer activity against human SiHa cells after 48 hrs by MTT assay. It is filed as functional, cell-based.
For a further test, the system named is A549. Kind of test: Anticancer activity against human A549 cells after 48 hrs by MTT assay. The format is functional, cell-based. To be noted: A549, 48 h.
For the next test, the system named is HeLa. Briefly: Anticancer activity against human HeLa cells after 48 hrs by MTT assay. The format is functional, cell-based.

Bounds are passed on as bounds.

Consider `CC(=O)O[C@H]1[C@@H](n2cnc3ccccc32)C[C@H]2[C@@H]3CC[C@H]4C[C@@H](N(C)Cc5ccccc5)CC[C@]4(C)[C@H]3CC[C@@]21C`, for which the half-inhibitory concentration (IC50) in the test with SW480 is 15.8 µM; with HEK293, > 80 µM; in the test with HepG2, 5.14 µM; in the test on SiHa it was 11.9 µM; with A549, 4.22 µM; with HeLa it was 6.04 µM.

With `CC(=O)O[C@H]1[C@@H](n2nnc3ccccc32)C[C@H]2[C@@H]3CC[C@H]4C[C@@H](N(C)Cc5ccccc5)CC[C@]4(C)[C@H]3CC[C@@]21C`, the concentration for half-maximal inhibition (IC50) with SW480 was > 50 µM; with HEK293, 48.7 µM; in the test with HepG2, 5.54 µM; in the test on SiHa it was 26.2 µM; with A549 it was 7.72 µM; with HeLa, 11.3 µM.
